How the values were obtained:
AtMRP1 = target: T1, AtMRP1 (Arabidopsis thaliana, UniProt Q9C8G9); assay: AtMRP1-dependent uptake by membrane vesicles from pYES3-AtMRP1-transformed DTY168 cells; type: biochemical; settings: MgATP-dependent, uncoupler-insensitive
T1 construct: S. cerevisiae DTY168 (ycf1 null) vacuolar-enriched membrane vesicles
Protocol: S. cerevisiae strain DTY168 (MATα his6, leu2-3, -112, ura3-52 ycf1::hisG) was transformed with pYES3-AtMRP1 or empty vector lacking the AtMRP1 insert (pYES3) by the LiOAc/PEG method (Giest et al., 1991, Yeast 7:253-263) and selected for uracil prototrophy by plating on AHC medium containing tryptophan (Kim et al., 1994, supra).
For the preparation of membrane vesicles, 15 ml volumes of stationary phase cultures of the transformants were diluted into 1 L of fresh AHC medium and grown to an OD600 nm of about 1.2. Membrane vesicles were purified as described herein and in Kim et al. (1995, supra).
[…] μl reaction volumes containing 3 mM ATP, 3 mM MgSO4, 5 μM gramicidin-D, 10 mM creatine phosphate, 16 units/ml creatine kinase, 50 mM KCl, 1 mg/ml BSA, 400 mM sorbitol, 25 mM Tris-Mes ([…]).
(§1) Cells were grown and vacuolar membrane-enriched vesicles were prepared as described (Kim et al., 1995, J Biol. Chem. 270:2630-2635-). […] Uptake was terminated by the addition of 1 ml ice-cold wash medium (400 mM sorbitol/3 mM Tris-Mes, pH 8.0) and vacuum filtration of the suspension through prewetted Millipore HA cellulose nitrate filters (pore size 0.45 μm). The filters were rinsed twice with wash medium, and the retained radioactivity was determined by liquid scintillation counting. Nonenergized uptake was estimated by the same procedure except that ATP was omitted from the uptake medium.

[1] = test system: vacuolar membrane vesicles purified from DTY167 cells (ycf1Δ mutant); type: biochemical, Saccharomyces cerevisiae; settings: 5 μM gramicidin D, GSH, GSSG 1 mM, GS-conjugates 100 μM
Method in brief: (§2)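 ATP-dependent [3H]DNP-GS (66.2 μM) transport measured by filtration and scintillation counting of Ficoll-purified yeast vacuolar vesicles (DTY165 wild type; DTY167 ycf1Δ), 1–60 min at 25 °C in sorbitol/Tris-Mes pH 8.0 with 3 mM ATP, 3 mM MgSO4 and gramicidin-D. Nonenergized uptake without ATP/Mg2+.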

[2] = target: T2, YCF1 (vacuolar membrane vesicles purified from DTY165 cells) (Saccharomyces cerevisiae, UniProt P39109); assay: [3H]DNP-GS uptake by vacuolar membrane vesicles purified from DTY165 cells; type: biochemical
T2 construct: endogenous in cells; host or cells: S. cerevisiae DTY165 (wild type YCF1), vacuolar membrane vesicles
Method in brief: as §2

barley vacuoles = settings: cited from earlier work
AtMRP2 = target: T3, AtMRP2 (Arabidopsis thaliana, UniProt Q42093); assay: AtMRP2-dependent uptake by membrane vesicles from pYES3-AtMRP2-transformed DTY168 cells; type: biochemical; settings: MgATP-dependent, uncoupler-insensitive
T3 construct: S. cerevisiae DTY168 (ycf1 null) vacuolar-enriched membrane vesicles
Protocol: as §1
Membranes from DTY168/pYES3-AtMRP2 cells were incubated for 10 minutes in standard uptake medium containing 61.3 μM [^3 H]DNP-GS after which time 200 mM glucose and 50 units/ml hexokinase (Type F-300 from baker's yeast) were added. […] Control samples were treated identically except that no additions were made after the initial 10 minute incubation period.

T2 sequence (P39109 whole entry): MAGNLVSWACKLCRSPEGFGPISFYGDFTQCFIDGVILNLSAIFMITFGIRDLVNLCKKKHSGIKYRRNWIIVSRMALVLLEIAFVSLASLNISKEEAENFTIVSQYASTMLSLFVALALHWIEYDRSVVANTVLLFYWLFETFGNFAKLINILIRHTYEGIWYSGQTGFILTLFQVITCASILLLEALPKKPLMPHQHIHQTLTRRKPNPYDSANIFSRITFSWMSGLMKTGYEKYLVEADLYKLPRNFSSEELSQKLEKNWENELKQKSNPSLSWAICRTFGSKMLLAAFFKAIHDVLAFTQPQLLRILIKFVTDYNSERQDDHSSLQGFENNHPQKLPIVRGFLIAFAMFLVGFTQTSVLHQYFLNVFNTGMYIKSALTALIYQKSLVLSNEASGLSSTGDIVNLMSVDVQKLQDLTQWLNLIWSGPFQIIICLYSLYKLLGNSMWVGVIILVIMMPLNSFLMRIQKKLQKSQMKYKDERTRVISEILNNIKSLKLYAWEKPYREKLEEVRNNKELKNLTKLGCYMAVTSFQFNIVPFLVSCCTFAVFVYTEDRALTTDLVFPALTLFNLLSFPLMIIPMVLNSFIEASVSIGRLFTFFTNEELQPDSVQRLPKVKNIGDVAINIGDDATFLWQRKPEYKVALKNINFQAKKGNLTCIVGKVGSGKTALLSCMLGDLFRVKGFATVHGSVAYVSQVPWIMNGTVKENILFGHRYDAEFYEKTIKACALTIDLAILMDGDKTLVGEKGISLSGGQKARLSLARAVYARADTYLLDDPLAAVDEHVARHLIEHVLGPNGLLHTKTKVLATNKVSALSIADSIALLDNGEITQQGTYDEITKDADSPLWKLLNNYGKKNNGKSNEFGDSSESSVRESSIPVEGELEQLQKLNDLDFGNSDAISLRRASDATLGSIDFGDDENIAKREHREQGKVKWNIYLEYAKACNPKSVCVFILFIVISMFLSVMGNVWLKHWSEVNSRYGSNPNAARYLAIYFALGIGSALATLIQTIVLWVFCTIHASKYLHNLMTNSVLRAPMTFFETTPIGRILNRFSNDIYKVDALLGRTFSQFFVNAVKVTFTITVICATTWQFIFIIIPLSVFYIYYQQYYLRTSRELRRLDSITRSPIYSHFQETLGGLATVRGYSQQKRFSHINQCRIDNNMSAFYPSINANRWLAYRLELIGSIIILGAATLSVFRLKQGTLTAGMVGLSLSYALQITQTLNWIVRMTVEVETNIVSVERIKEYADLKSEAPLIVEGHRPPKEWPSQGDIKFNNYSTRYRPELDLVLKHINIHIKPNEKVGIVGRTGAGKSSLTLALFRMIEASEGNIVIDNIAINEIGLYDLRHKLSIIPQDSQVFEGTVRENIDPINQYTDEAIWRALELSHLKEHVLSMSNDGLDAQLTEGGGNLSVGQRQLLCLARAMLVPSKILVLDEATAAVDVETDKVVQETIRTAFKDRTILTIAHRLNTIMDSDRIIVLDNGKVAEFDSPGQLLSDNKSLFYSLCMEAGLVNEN
T3 sequence (Q42093 whole entry): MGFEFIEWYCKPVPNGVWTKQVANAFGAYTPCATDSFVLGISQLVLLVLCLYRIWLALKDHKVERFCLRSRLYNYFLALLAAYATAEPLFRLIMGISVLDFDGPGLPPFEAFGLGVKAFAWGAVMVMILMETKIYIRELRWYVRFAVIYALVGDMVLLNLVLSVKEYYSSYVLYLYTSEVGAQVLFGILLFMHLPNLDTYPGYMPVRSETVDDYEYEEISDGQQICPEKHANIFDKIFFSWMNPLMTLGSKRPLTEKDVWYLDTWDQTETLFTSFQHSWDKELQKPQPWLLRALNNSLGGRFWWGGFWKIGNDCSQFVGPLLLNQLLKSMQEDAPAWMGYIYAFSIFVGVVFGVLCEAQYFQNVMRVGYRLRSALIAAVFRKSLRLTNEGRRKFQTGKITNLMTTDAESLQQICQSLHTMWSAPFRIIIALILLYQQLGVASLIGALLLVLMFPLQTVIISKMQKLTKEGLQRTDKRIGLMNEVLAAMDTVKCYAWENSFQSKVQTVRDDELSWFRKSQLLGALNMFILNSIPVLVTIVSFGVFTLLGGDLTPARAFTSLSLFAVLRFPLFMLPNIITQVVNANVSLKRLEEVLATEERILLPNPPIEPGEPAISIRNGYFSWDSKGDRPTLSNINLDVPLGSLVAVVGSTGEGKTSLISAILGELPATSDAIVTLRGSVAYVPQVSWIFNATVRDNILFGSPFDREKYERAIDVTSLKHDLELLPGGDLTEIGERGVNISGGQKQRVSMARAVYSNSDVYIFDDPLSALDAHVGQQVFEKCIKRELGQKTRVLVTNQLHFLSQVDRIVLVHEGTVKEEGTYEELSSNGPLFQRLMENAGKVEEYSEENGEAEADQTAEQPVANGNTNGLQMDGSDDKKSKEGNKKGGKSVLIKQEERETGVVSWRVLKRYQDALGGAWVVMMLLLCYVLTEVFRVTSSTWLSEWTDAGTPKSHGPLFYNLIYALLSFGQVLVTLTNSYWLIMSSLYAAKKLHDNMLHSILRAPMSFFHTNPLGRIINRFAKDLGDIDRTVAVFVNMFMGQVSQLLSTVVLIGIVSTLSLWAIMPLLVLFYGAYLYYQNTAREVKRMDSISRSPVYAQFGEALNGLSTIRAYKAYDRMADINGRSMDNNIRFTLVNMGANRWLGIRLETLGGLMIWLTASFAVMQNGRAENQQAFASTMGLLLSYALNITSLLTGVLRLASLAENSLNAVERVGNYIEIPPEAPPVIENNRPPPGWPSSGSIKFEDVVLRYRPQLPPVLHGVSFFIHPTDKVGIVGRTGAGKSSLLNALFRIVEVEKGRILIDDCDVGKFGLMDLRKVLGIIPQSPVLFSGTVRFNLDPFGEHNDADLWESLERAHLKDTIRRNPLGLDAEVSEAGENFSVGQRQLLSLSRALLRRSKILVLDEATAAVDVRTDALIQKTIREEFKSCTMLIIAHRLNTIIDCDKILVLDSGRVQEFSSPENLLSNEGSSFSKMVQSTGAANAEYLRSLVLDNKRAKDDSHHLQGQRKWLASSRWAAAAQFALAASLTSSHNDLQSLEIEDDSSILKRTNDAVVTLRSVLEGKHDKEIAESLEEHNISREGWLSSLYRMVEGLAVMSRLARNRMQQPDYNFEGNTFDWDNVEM
T1 sequence (Q9C8G9 whole entry): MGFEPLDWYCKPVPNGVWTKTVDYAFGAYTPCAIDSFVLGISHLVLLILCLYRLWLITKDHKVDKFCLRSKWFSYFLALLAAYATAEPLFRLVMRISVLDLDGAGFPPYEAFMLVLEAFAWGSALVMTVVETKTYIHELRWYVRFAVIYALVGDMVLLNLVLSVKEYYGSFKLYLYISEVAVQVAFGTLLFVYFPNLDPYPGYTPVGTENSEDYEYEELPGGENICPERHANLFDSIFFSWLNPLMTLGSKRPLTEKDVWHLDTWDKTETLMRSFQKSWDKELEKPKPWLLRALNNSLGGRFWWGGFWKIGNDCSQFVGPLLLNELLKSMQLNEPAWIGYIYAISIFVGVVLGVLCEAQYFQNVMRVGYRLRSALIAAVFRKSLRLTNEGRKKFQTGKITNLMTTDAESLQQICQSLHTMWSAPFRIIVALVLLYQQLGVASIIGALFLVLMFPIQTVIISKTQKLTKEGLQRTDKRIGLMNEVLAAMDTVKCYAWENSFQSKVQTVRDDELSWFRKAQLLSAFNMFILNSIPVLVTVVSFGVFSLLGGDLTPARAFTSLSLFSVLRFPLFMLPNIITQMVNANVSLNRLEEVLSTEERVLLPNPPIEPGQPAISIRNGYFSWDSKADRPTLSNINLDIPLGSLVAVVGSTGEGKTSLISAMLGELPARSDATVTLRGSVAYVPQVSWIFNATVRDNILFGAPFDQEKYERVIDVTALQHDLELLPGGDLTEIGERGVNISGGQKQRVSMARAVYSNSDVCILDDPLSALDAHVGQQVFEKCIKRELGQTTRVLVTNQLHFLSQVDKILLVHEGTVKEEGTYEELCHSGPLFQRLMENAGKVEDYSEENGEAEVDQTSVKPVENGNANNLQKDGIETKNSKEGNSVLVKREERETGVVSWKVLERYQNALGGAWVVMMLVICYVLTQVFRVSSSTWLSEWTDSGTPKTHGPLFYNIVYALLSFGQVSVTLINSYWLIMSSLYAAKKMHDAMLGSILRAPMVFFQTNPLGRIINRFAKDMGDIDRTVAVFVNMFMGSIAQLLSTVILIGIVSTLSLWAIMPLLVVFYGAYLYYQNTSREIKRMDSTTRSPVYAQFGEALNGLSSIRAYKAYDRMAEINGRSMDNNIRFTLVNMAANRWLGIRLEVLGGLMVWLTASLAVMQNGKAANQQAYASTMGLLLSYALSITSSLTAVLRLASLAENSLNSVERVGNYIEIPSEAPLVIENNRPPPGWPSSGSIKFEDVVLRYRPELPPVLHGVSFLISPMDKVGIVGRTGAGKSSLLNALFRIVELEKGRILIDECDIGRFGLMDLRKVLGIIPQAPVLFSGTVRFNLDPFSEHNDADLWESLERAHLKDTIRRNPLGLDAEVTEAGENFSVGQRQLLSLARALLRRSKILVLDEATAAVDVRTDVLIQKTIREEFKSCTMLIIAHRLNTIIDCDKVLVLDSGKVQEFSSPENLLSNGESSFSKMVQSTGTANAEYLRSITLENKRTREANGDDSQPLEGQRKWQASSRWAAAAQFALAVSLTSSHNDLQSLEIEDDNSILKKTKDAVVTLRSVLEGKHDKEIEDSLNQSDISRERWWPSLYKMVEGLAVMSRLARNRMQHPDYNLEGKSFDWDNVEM

CCc1cccc(C)c1N(C(=O)CSC[C@H](NC(=O)CC[C@H](N)C(=O)O)C(=O)NCC(=O)O)C(C)COC (stereo partly shown) [Metolachlor-GS]
Vmax for AtMRP1-dependent uptake (AtMRP1): 17.5 ± 5.2 nmol/mg/10 min | Vmax for AtMRP1-dependent uptake (AtMRP1; listed as metolachlor-GS): 17.5±5.2 nmol/mg/10 min | MgATP-dependent, uncoupler-insensitive DNP-GS uptake plus compound [1]: 4.8 ± 0.7 nmol/mg/10 minutes | MgATP-dependent, uncoupler-insensitive DNP-GS uptake as percentage of control ([1]; 10 min): 73.8% | MgATP-dependent, uncoupler-insensitive DNP-GS uptake plus compound ([2]; 5 μM gramicidin D, GSH, GSSG 1 mM, GS-conjugates 100 μM): 27.6 ± 0.9 nmol/mg/10 minutes | MgATP-dependent, uncoupler-insensitive DNP-GS uptake as percentage of control ([2]; 5 μM gramicidin D, GSH, GSSG 1 mM, GS-conjugates 100 μM, 10 min): 57.7% | inhibition at 100 µM ([2]; 100 μM compound): ~50% | Km estimated previously (barley vacuoles): 40 to 60 µM | Vmax for AtMRP2-dependent uptake (AtMRP2): 136.0 ± 28.1 nmol/mg/10 min | Vmax for AtMRP2-dependent uptake (AtMRP2; listed as metolachlor-GS): 136.0±28.1 nmol/mg/10 min
